Measurements: patent US6177572A, “Solid and liquid-phase synthesis of benzoxazoles and benzothiazoles and their use” (Sepracor, Inc., priority 1997, dated 2001)

What was measured:
Assay type in all cases: cell-based
[1] = tested on: Saccharomyces; assay: Modified Kirby-Bauer Assay Against Saccharomyces; details: 10 mg/ml
Method: (§1) Modified Kirby-Bauer Susceptibility Testing (see, e.g., Finegold et al. "Diagnostic Microbiology," 6th Ed., C. V. Mosby Co., St. Louis, (1982), pp. 542-543: Microorganisms are grown on a solid medium in order to ensure a pure homogeneous culture. This requires an 18-24 hour grow out. Once purity is determined, the microorganism is sub-cultured by picking off one to three colonies from the solid medium using a sterile loop, and placing the colonies onto an appropriate liquid medium (e.g., Brain Heart Infusion for bacteria and Sabouraud's Dextrose for yeast or fungi). The microorganisms are then allowed to grow for 4-6 hours at the appropriate atmospheric and temperature conditions. After the 4-6 hour grow out, the microorganisms are ready for testing.
(§2) The MacFarland standard is prepared by mixing Barium Chloride with sulfuric acid in the appropriate proportions, as is known in the art (see, e.g. Finegold et al., supra). Once the cultures have been standardized, sterile cotton swabs are used to apply the microorganisms to agar plates for testing. The plates are swabbed in three different directions, rotating the plates 60 each time. After the microorganisms have been applied to the plate, 10-12 paper disks (1/4") in diameter are spaced evenly around the plate. […] The zones are measured in millimeters and recorded. […]

[2] = tested on: Candida; assay: Modified Kirby-Bauer Assay Against Candida; details: 10 mg/ml
Method: as §1, §2

[3] = tested on: Staphylococcus aureus; assay: Modified Kirby-Bauer Assay Against Staphylococcus aureus; details: read-out: zone size of inhibited microbial growth (diameter), control
Method: as §1, §2

[4] = tested on: E. Coli; assay: Modified Kirby-Bauer Assay Against E. Coli; details: Escherichia coli, control, 10 mg/ml, read-out: zone size of inhibited microbial growth (diameter), control
Method: as §1, §2

Row | Structure (SMILES) | zone size of inhibited microbial growth (diameter), control [1] [mm] | zone size of inhibited microbial growth (diameter), control [2] [mm] | zone of inhibition at 10000 µg/mL [3] [mm] | zone of inhibition at 10000 µg/mL [4] [mm]
1 | CCC(C)n1ncn(-c2ccc(N3CCN(c4ccc(OCC5COC(Cn6cncn6)(c6ccc(Cl)cc6Cl)O5)cc4)CC3)cc2)c1=O (single isomer, unassigned; (-)) [(-) cis itraconazole] | 15 | 15 | – | –
2 | CCC(C)n1ncn(-c2ccc(N3CCN(c4ccc(OCC5COC(Cn6cncn6)(c6ccc(Cl)cc6Cl)O5)cc4)CC3)cc2)c1=O (single isomer, unassigned; (+)) [(+) cis-itraconazole] | 12 | 12 | – | –
3 | CN(C)C1C(O)=C(C(N)=O)C(=O)C2(O)C(O)=C3C(=O)c4c(O)cccc4C(C)(O)C3CC12 (stereo not drawn) [Tetracylcine] | – | – | 25 | 22
